Test results reported in US20250082695A1, “USE OF GLYCEROL FOR INCREASING BUTYRATE PRODUCTION BY BACTERIA IN A CONSORTIUM” (PHARMABIOME AG, priority 2019, published 2025).

Key:
Type in all cases: cell-based
[1] = system: bacterial consortium PB010; assay: Continuous co-culture of consortium PB010 in bioreactors with and without glycerol, absolute metabolite concentrations; details: PB010, medium with 30 mM glycerol vs without, day 8 after inoculation
Description: FIG. 4: Absolute metabolite concentration of the continuously co-cultured bacterial consortium PB010 in a bioreactor at day 8 after inoculation: (1) cultured in a culture medium without glycerol, (2) cultured in a culture medium supplemented with glycerol. Absolute metabolites of the two reactors are represented on the x-axis and the concentrations of acetate, propionate, and butyrate are indicated in mM on the y-axis.
The concentrations of the produced metabolites were quantified by refractive index detection HPLC (Thermo Scientific Accela™, ThermoFisher Scientific; HPLC-RI)). HPLC-RI analysis was performed using a SecurityGuard Cartridges Carbo-H (4×3.0 mm) (Phenomenex, Torrence, USA) as guard-column connected to a Rezex ROA-Organic Acid H+ column (300×7.8 mm) (Phenomenex). Bacteria cultures to be analyzed were centrifuged at 14.000-x g for 10 min at 4° C. Filter-sterilized ([…]) supernatants were analyzed. Injection volume for each sample was […]. […] Peaks were analyzed using AgilentEzChrome Elite software (Version: 3.3.2 SP2, Agilent Technologies, Inc. Pleasanton, USA). […]
(§1) The bioreactor was consecutively operated at pH 6.0 for 24 h in order to allow growth of primary degraders and subsequent consumption of the produced intermediate metabolites. Growth was monitored by base consumption and optical density. Metabolites were monitored using HPLC-RI as described above. […]

[2] = system: butyrate producing strains of group A6; assay: qPCR quantification of absolute abundances of PB002 strains during continuous culture; details: glycerol supplementation
Description: FIG. 2: Absolute abundances of all strains of the continuously cultured consortium PB002 in a bioreactor before and after the supplementation of glycerol. Abundances were quantified using qPCR and are indicated in copies of the 16S rRNA gene/ml of culture for the strains representing A1, A2, A3, A4, A5, A6, A7, A8, and A9.
To test maintenance of all bacterial strains of exemplary consortia PB002 and PB010 in the culture over time, qPCR quantification of the single strains of each consortium was performed using the primers listed in Table 3.
DNA from pellets of the fermentation effluent was extracted using the FastDNA™ SPIN Kit for Soil (MP Bio). Genomic DNA extracts were 10-fold diluted using DNA-free H2O. qPCRs were performed using Mastermix SYBR® green 2× and LowRox (Kapa Biosystems), primers (10 μM) and DNA-free H2O were used in a ABI 7500 FAST thermal cycler (Applied Biosystems) as recommended by the producer and quantified using standards of amplified whole 16S rRNA gene amplicon sequences of the strains cloned into the pGEMT easy vector (Promega, Madison WI, USA). Amplification of the whole 16S rRNA gene was performed with a combination of whole 16S rRNA gene amplification primers using one forward and one reverse primer from the primers listed in Table 4. qPCR quantification of the single strains is shown in copies of genomic 16S rRNA gene per ml of culture (FIG. 2). […]

[3] = system: bacterial consortium PB002; assay: Continuous co-culture of consortium PB002 in a bioreactor, daily metabolite concentrations before and after glycerol supplementation; details: PB002, addition of 30 mM glycerol at day 38 of continuous culture
Description: FIG. 1: Daily metabolite concentration of the continuously co-cultured bacterial consortium PB002 in a bioreactor before and after the supplementation of glycerol. Day of sampling from day 30 to day 55 after inoculation are represented on the x-axis and the concentrations of acetate, propionate, butyrate, formate, lactate, and succinate indicated in mM on the y-axis.
The concentrations of the produced metabolites were quantified by refractive index detection HPLC (Thermo Scientific Accela™, ThermoFisher Scientific; HPLC-RI)). […] Bacteria cultures to be analyzed were centrifuged at 14.000-x g for 10 min at 4° C. Filter-sterilized ([…]) supernatants were analyzed. […] Peaks were analyzed using AgilentEzChrome Elite software (Version: 3.3.2 SP2, Agilent Technologies, Inc. Pleasanton, USA). […]
as §1
The consortium PB002 was continuously cultured in a bioreactor during 55 days. Metabolite concentrations were measured daily before and after glycerol supplementation (addition of 30 mM glycerol) at day 38.

[4] = system: bacterial consortium PB010; assay: Continuous co-culture, relative end metabolite concentrations on day 2 and 8 (glycerol supplemented after day 2), PB010; details: PB010 (n=3), glycerol supplemented after day 2, day 8 vs day 2
Experimental: (§2) FIG. 5: Relative end metabolite concentration of the continuously co-cultured bacterial consortia PB002 (n=2) and PB010 (n=3) in bioreactors on day 2 and 8 of co-cultivation. All bioreactors were cultivated for 48 hours in a medium without glycerol.
(§3) The bacterial consortium PB002 and the bacterial consortium PB010 were continuously cultured in bioreactors. Relative end metabolite concentrations were determined on day 2 and 8 of co-cultivation.
(§4) All bioreactors were cultivated for 48 hours in a medium without glycerol.

[5] = system: bacterial consortium PB002; assay: Continuous co-culture, relative end metabolite concentrations on day 2 and 8 (glycerol supplemented after day 2), PB002; details: PB002 (n=2), glycerol supplemented after day 2, day 8 vs day 2
Experimental: as §2, §3, §4

OCC(O)CO [glycerol]
accumulation of succinate, lactate or formate [1]: no accumulation
butyrate production of the consortium [1]: stimulates butyrate production
abundance of butyrate producing strains of group A6 (16S rRNA gene copies/ml) [2]: positively affects abundance
accumulation of the intermediate metabolites formate, lactate, succinate [3]: no accumulation
butyrate production of the consortium [3]: enhanced butyrate production immediately
butyrate production (relative end metabolite concentration) [4]: increase in butyrate production
butyrate production (relative end metabolite concentration) [5]: increase in butyrate production
